For twelve compounds, zone of inhibition results are on record in ChEMBL document CHEMBL2424540, “Synthesis and pharmacological evaluation of novel 1-(piperidin-4-yl)-1H-benzo[d]imidazol-2(3H)-one derivatives as potential antimicrobial agents” (2013).

Common to all, as to type: functional
For assay [1], the system named is Streptococcus pyogenes. As to the kind of experiment: Antibacterial activity against Streptococcus pyogenes MTCC 442 at 50 mg/ml after 24 hrs by disk agar diffusion technique. To be noted: MTCC 442, 24 h, read-out: DIZ. For orientation: Agar diffusion results depend on both activity and mobility in agar.
The test system of assay [2] is Pseudomonas aeruginosa. As to the kind of experiment: Antibacterial activity against Pseudomonas aeruginosa MTCC 424 at 50 mg/ml after 24 hrs by disk agar diffusion technique. To be noted: MTCC 424, 24 h, read-out: DIZ.
The subject of assay [3] is Escherichia coli. As to the kind of experiment: Antibacterial activity against Escherichia coli MTCC 443 at 50 mg/ml after 24 hrs by disk agar diffusion technique. To be noted: MTCC 443, 24 h, read-out: DIZ.
Assay [4] relates to Staphylococcus aureus. As to the kind of experiment: Antibacterial activity against Staphylococcus aureus MTCC 96 at 50 mg/ml after 24 hrs by disk agar diffusion technique. The note with it: MTCC 96, 24 h, read-out: DIZ.
Assay [5] relates to Aspergillus clavatus. As to the kind of experiment: Antifungal activity against Aspergillus clavatus MTCC 1323 at 50 mg/ml after 24 hrs by disk agar diffusion technique. To be noted: MTCC 1323, 24 h, read-out: DIZ.
Assay [6] concerns Candida albicans. The experiment in a line: Antifungal activity against Candida albicans MTCC 227 at 50 mg/ml after 24 hrs by disk agar diffusion technique. To be noted: MTCC 227, 24 h, read-out: DIZ.

`O=C(N[C@H](CO)[C@H](O)c1ccc([N+](=O)[O-])cc1)C(Cl)Cl` [CHLORAMPHENICOL]: the zone of inhibition at 50000 µg/mL in assay [1] came out at 20 mm; in assay [2] it was 21 mm; in assay [3] it was 23 mm; in assay [4] it was 21 mm.

For `CC1(C)S[C@@H]2[C@H](NC(=O)[C@H](N)c3ccccc3)C(=O)N2[C@H]1C(=O)O` [AMPICILLIN], the zone of inhibition at 50000 µg/mL in assay [1] was determined as 19 mm; in assay [2] it was 20 mm; in assay [3], 20 mm; in assay [4], 18 mm.

As to `OC(Cn1cncn1)(Cn1cncn1)c1ccc(F)cc1F` [FLUCONAZOLE], the zone of inhibition at 50000 µg/mL in assay [5] and in assay [6] was 24 mm each time.

Take `COc1cc2c(cc1OC)C(N1CCC(n3c(=O)n(Cc4ccccc4)c4cc(Cl)ccc43)CC1)CC2` (centres undefined): the zone of inhibition at 50000 µg/mL in assay [1] came out at 10 mm; in assay [2], 13 mm; in assay [3] it was 11 mm; in assay [4], 11 mm; in assay [5] it was 17 mm; in assay [6] it was 25 mm.

Turning to `COCn1c(=O)n(C2CCN(C3CCc4cc(OC)c(OC)cc43)CC2)c2ccc(Cl)cc21` (centres undefined), the zone of inhibition at 50000 µg/mL in assay [1] stood at 13 mm; in assay [2], 15 mm; in assay [3] it was 14 mm; in assay [4] it was 10 mm; in assay [5], 15 mm; in assay [6], 24 mm.

Turning to `COc1cc2c(cc1OC)C(N1CCC(n3c(=O)n(Cc4ccc([N+](=O)[O-])cc4)c4cc(Cl)ccc43)CC1)CC2` (centres undefined), the zone of inhibition at 50000 µg/mL in assay [1] was 11 mm; in assay [2], 10 mm; in assay [3] it was 17 mm; in assay [4], 13 mm; in assay [5], 22 mm; in assay [6], 17 mm.

For the compound `COc1cc2c(cc1OC)C(N1CCC(n3c(=O)n(Cc4ccc(Cl)cc4)c4cc(Cl)ccc43)CC1)CC2` (centres undefined), the zone of inhibition at 50000 µg/mL in assay [1] came out at 9 mm; in assay [2], 9 mm; in assay [3] it was 19 mm; in assay [4] it was 17 mm; in assay [5] it was 19 mm; in assay [6], 16 mm.

With `CCOC(=O)n1c(=O)n(C2CCN(C3CCc4cc(OC)c(OC)cc43)CC2)c2ccc(Cl)cc21` (centres undefined), the zone of inhibition at 50000 µg/mL in assay [1] worked out at 14 mm; in assay [2], 13 mm; in assay [3] it was 15 mm; in assay [4], 11 mm; in assay [5], 21 mm; in assay [6], 7 mm.

In the case of `COc1cc2c(cc1OC)C(N1CCC(n3c(=O)n(CCCN(C)C)c4cc(Cl)ccc43)CC1)CC2` (centres undefined), the zone of inhibition at 50000 µg/mL in assay [1] was 18 mm; in assay [2], 16 mm; in assay [3], 14 mm; in assay [4] it was 13 mm; in assay [5], 10 mm; in assay [6], 18 mm.

As for `CCN(CC)C(=O)n1c(=O)n(C2CCN(C3CCc4cc(OC)c(OC)cc43)CC2)c2ccc(Cl)cc21` (centres undefined), the zone of inhibition at 50000 µg/mL was 11 mm in assay [1]; 8 mm in assay [2]; 13 mm in assay [3]; 20 mm in assay [4]; 11 mm in assay [5]; 10 mm in assay [6].

With `CCOC(=O)Cn1c(=O)n(C2CCN(C3CCc4cc(OC)c(OC)cc43)CC2)c2ccc(Cl)cc21` (centres undefined), the zone of inhibition at 50000 µg/mL was 16 mm in assay [1]; 11 mm in assay [2]; 12 mm in assay [3]; 14 mm in assay [4]; 14 mm in assay [5]; 15 mm in assay [6].

In the case of `COc1cc2c(cc1OC)C(N1CCC(n3c(=O)n(CCCl)c4cc(Cl)ccc43)CC1)CC2` (centres undefined), the zone of inhibition at 50000 µg/mL in assay [1] worked out at 16 mm; in assay [2] it was 11 mm; in assay [3], 10 mm; in assay [4] it was 18 mm; in assay [5], 13 mm; in assay [6], 17 mm.
